From ChEMBL document CHEMBL1133880 (Bioorg Med Chem Lett, 2001) come the findings set out here.

Residues, ends and D or L forms follow the SMILES beside them. *: point of attachment. Octanoyl = CCCCCCCC(=O)*

For orientation: EC50 means the concentration needed to bring the measured effect to its halfway point. Usually IC50 stands for the midpoint of a concentration-inhibition curve. A higher IC50 goes with weaker potency.

Assay [1] has as its target T1, Growth hormone secretagogue receptor type 1 (Homo sapiens, UniProt Q92847). Nature of the assay: Functional potency measured as intracellular calcium elevation in Hek-293 cells expressing hGHSR1a. The class given is cell-based, HEK293. (In general: Calcium flux is commonly read through the fluorescence of an indicator in the cells.)
For assay [2], the target named is T1, Growth hormone secretagogue receptor type 1. Nature of the assay: Binding affinity towards human Growth hormone secretagogue receptor type 1 using competitive binding assay with radiolabeled [35S]-MK-0677 expressed as IC50.

T1 sequence (Q92847 whole entry): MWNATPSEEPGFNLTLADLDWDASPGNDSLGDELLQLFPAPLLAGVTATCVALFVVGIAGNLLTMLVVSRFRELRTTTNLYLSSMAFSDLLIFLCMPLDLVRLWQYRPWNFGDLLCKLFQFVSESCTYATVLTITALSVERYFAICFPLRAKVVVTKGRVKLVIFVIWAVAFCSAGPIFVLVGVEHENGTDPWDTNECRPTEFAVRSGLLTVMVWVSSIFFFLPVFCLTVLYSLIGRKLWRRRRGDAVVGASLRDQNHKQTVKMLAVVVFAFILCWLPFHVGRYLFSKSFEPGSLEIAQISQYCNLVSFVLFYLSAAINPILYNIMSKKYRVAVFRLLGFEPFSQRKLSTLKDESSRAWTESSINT

Take `CCCCCCCC(=O)OC[C@@H](NC(=O)[C@@H](N)CO)C(=O)N1CCC2(CC1)CN(S(C)(=O)=O)c1ccccc12`: the EC50 in assay [1] is 432 nM. In addition, the IC50 in assay [2] was determined as 829 nM.
On to `CCCCCCCC(=O)OC[C@@H](NC(=O)C(C)(C)N)C(=O)N1CCC2(CC1)CN(S(C)(=O)=O)c1ccccc12`, for which the EC50 in assay [1] was 19.6 nM. In assay [2], this compound had an IC50 of 8.12 nM.
Turning to `CS(=O)(=O)N1CC2(CCN(C(=O)[C@@H](COCc3ccccc3)NC(=O)[C@@H](N)CO)CC2)c2ccccc21`, in assay [1], the EC50 was 69.2 nM. The half-maximal inhibitory concentration (IC50) in assay [2] was 209 nM.
On the same counts, the results for `CS(=O)(=O)N1CC2(CCN(C(=O)[C@@H](COCc3ccccc3)NC(=O)[C@H](CO)NC(=O)CN)CC2)c2ccccc21` are 7.95 nM and 36.2 nM.
In the case of `CCCCCCCC(=O)OC[C@H](NC(=O)[C@H](CO)NC(=O)CN)C(=O)N1CCC2(CC1)CN(S(C)(=O)=O)c1ccccc12`, in assay [1], the EC50 is 448 nM. The compound further displayed an IC50 in assay [2] of 2670 nM.
With `CCCCCCCC(=O)OC[C@H](NC(=O)C(C)(C)N)C(=O)N1CCC2(CC1)CN(S(C)(=O)=O)c1ccccc12`, the EC50 in assay [1] came to 378 nM. Besides, the IC50 in assay [2] is 590 nM.
For the compound `CCCCCCCC(=O)OC[C@@H](NC(=O)[C@H](CO)NC(=O)CN)C(=O)N1CCC2(CC1)CN(S(C)(=O)=O)c1ccccc12`, in assay [1], the EC50 was found to be 68.2 nM. This compound also registered an IC50 in assay [2] of 128 nM.
Turning to `CCCCCCCC(=O)OC[C@H](NC(=O)CN)C(=O)N[C@@H](CO)C(=O)N[C@@H](Cc1ccccc1)C(=O)O` (H-GS(Octanoyl)SF-OH), the EC50 in assay [1] was 72 nM. The compound further came in with an IC50 in assay [2] of 889 nM.
